Columns and labels:
Type in all cases: physicochemical
[1] = Degradation to lanthanum hydroxycarbonate at room temperature / standard ambient conditions
[2] = Thermal and moisture stress study of lanthanum carbonate/excipient mixtures, decarboxylation to lanthanum hydroxycarbonate (HC) monitored by XRPD
Description: Excipient compatibility studies of hydrated lanthanum carbonate having a water content approximately equivalent to 4-5 moles of water and anhydrous lanthanum carbonate were performed to determine whether different classes of saccharide excipients would retard or prevent the appearance of decarboxylation products in thermally- and moisture-stressed solid lanthanum carbonate mixtures.
Conditions which would cause the formation of decarboxylation products in substantially pure hydrated lanthanum carbonate within one week were used. Mixtures of 1:1 or 96:4 (by weight) of hydrated lanthanum carbonate and a test excipient or 1:1 (by weight) anhydrous lanthanum carbonate and a test excipient were prepared and stressed, and samples were analyzed by XRPD (X-ray powder diffraction) as a function of exposure time.
Weighed samples of hydrated lanthanum carbonate/excipient (1:1 or 96:4 by weight) or anhydrous lanthanum carbonate/excipient (1:1 by weight) were sealed into scintillation vials and placed onto a Turbula mixer. Samples were mixed for ten minutes to ensure sample homogeneity.
Saturated salt solutions of Na2SO4.10H2O (˜95% RH (relative humidity)) or NaNO3 (65% RH) were prepared and placed into sealed chambers. The chambers were placed into a 60° C. oven overnight and the presence of solids was confirmed after 24 hours. These chambers were then subsequently used for the stressing studies of the various excipient/lanthanum carbonate mixtures. The lower humidity conditions were utilized for the D-sorbitol and dextrates excipients because they deliquesce under the more extreme conditions of 60° C./95% RH.
XRPD analyses were performed using a Shimadzu XRD-6000 X-ray powder diffractometer using Cu Kα radiation. […]
At the experimental onset, the hydrated lanthanum carbonate was stressed under two conditions, 60° C./95% RH and 60° C./65% RH, in order to establish a baseline for monitoring decarboxylation. Individual samples were pulled after 1, 2, 3, 4, and 7 days and immediately analyzed by XRPD. […]

[3] = Decarboxylation of hydrated lanthanum carbonate at standard ICH stability conditions, lanthanum hydroxycarbonate content by XRPD; conditions: 25° C./60% RH, 30° C./60% RH and 40° C./75% RH, up to 2 years
Description: Unformulated hydrated lanthanum carbonate and formulated hydrated lanthanum carbonate tablets containing approximately 50% (by weight) dextrates were exposed to the standard ICH stability conditions of 25° C./60% RH, 30° C./60% RH and 40° C./75% RH for a period up to 2 years. Samples were removed periodically over this time and tested for their lanthanum hydroxycarbonate content using x-ray powder diffraction.

Row | Molecule | time within which degradation to lanthanum hydroxycarbonate occurs [1] | time after which decarboxylation product HC was initially seen (XRPD) ([2]; 60° C./95% RH) | degradation (decarboxylation) to lanthanum hydroxycarbonate [3] | time after which decarboxylation product HC was initially seen (XRPD) ([2]; 60° C./65% RH)
1 | O=C([O-])[O-].O=C([O-])[O-].O=C([O-])[O-].[La+3].[La+3] [substantially pure lanthanum carbonate, La2(CO3)3.xH2O] | 9-12 months | 1 days | – | –
2 | hydrated lanthanum carbonate | – | one | significant degradation | single

Reference: patent publication US7381428B2, “Stabilized lanthanum carbonate compositions” (Shire International Licensing B.V., priority 2003, dated 2008)
